From ChEMBL document CHEMBL4619786, “Discovery of Novel Resorcinol Dibenzyl Ethers Targeting the Programmed Cell Death-1/Programmed Cell Death-Ligand 1 Interaction as Potential Anticancer Agents” (J Med Chem, 2020)
Active and inactive are the calls of the source. No cut-off for these calls is given here.

Experiments:
Mus musculus [1] = test: (§1) Effect on spleen helper T cell population in mouse B16/F10 cells implanted […] mouse assessed as CD4-positive cell population at 50 mg/kg, ig administered once daily via gavage for 15 days measured 24 hrs post-last dose by immunostaining based flow cytometry (reference value: 1.47 %); assay type: ADME, organism-based; conditions: in vivo, po
Mus musculus [2] = test: (§2) Effect on activated cytotoxic T cell population in mouse B16/F10 cells implanted […] mouse assessed as CD8-positive cell population in spleen at 100 mg/kg, ig administered once daily via gavage for 15 days measured 24 hrs post-last dose by immunostaining based flow cytometry (reference value: 0.383 %); assay type: organism-based; conditions: in vivo, po
Mus musculus [3] = test: (§3) Immunostimulatory activity in mouse B16/F10 cells implanted […] mouse assessed as increase in activation of tumor-microenvironment mediated activated cytotoxic T cells in tumor by measuring melanoma cell population at 50 mg/kg, ig administered once daily via gavage for 15 days measured 24 hrs post-last dose by immunostaining based flow cytometry (reference value: 72.8%); assay type: functional
Mus musculus [4] = test: as §3, with “CD3-positive/CD8-positive” for “melanoma”, “100” for “50”, “4.18%)” for “72.8%)”; assay type: functional
Mus musculus [5] = test: as §3, with “helper” for “activated cytotoxic”, “CD4-positive” for “melanoma”, “4.95%)” for “72.8%)”; assay type: functional
Mus musculus [6] = test: as §3, with “CD3-positive” for “melanoma”, “100” for “50”, “20.8%)” for “72.8%)”; assay type: functional
[7] = Cmax in Sprague-Dawley rat at 10 mg/kg, po by LC-MS/MS analysis; assay type: ADME, organism-based; set-up: dose 10 mg/kg, route oral; conditions: in vivo
[8] = biological target: Programmed cell death protein 1/Programmed cell death 1 ligand 1 (Mus musculus, UniProt Q9EP73); test: Inhibition of mouse biotin-labelled C-terminal Fc-fused/Avi-tagged PD1/Fc-fused PDL1 expressed in HEK293 cells protein-protein interaction measured after 2 hrs by ELISA; assay type: cell-based
Sequence of Programmed cell death protein 1/Programmed cell death 1 ligand 1 (Mus musculus, UniProt Q9EP73) (Q9EP73 whole entry, the tested form may be a part): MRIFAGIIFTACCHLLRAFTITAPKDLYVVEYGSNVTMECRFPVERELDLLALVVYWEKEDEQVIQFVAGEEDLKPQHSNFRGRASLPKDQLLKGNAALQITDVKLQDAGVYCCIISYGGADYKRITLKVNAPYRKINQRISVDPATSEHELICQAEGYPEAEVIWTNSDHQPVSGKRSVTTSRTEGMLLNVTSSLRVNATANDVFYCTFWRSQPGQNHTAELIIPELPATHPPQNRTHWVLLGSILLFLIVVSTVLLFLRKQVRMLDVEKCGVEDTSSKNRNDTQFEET
Sequence of Programmed cell death protein 1/Programmed cell death 1 ligand 1 (Mus musculus, UniProt Q9EP73) (Q02242 whole entry, further chain, the tested form may be a part): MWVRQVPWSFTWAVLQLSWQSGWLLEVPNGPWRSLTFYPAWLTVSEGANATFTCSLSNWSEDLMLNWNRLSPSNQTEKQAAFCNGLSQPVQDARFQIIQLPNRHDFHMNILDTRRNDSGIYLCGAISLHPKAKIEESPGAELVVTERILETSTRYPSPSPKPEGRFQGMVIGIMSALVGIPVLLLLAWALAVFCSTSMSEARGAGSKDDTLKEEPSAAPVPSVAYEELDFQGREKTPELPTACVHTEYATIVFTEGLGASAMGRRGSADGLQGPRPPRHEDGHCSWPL

Mus musculus [9] = test: as §3, with “CD3-positive/CD8-positive” for “melanoma”, “4.18%)” for “72.8%)”; assay type: functional
B16-F10 [10] = test: Cytotoxicity against mouse B16/F10 cells assessed as reduction in cell viability measured after 48 hrs by MTT assay; assay type: functional, cell-based; conditions: B16-F10, 48 h
Mus musculus [11] = test: Immunostimulatory activity in mouse B16/F10 cells implanted […] mouse assessed as activation of tumor microenvironment by measuring increase in tumor infiltrating lymphocytes at 25 to 100 mg/kg, ig administered once daily via gavage for 15 days measured 24 hrs post last dose by H and E staining-based microscopic method; assay type: functional, organism-based
[12] = Toxicity in Sprague-Dawley rat at 1 mg/kg, iv; assay type: organism-based; conditions: in vivo
[13] = biological target: Programmed cell death protein 1/Programmed cell death 1 ligand 1 (Homo sapiens, UniProt Q9NZQ7); test: Inhibition of human C-terminal Ig-Fc-tagged PD1 (Leu25 to Gln167 residues) expressed in HEK293 cells/human C-terminal epitope-His-tagged PDL1 (Phe19 to Arg238 residues) expressed in HEK293 cells protein-protein interaction preincubated for 15 mins with PDL1 followed by PD1 addition and measured after 15 mins by APC-labeled anti-His antibody/Eu-labeled anti-human IgG based HTRF assay; assay type: cell-based
Sequence of Programmed cell death protein 1/Programmed cell death 1 ligand 1 (Homo sapiens, UniProt Q9NZQ7) (Q15116 whole entry): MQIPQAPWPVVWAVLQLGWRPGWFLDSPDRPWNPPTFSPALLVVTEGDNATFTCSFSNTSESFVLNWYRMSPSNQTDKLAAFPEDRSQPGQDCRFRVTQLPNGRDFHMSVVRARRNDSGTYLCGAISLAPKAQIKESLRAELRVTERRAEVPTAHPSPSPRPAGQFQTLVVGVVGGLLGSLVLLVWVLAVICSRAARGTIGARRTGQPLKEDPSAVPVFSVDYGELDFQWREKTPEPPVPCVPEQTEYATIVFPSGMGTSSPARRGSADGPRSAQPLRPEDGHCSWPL
Sequence of Programmed cell death protein 1/Programmed cell death 1 ligand 1 (Homo sapiens, UniProt Q9NZQ7) (Q9NZQ7 whole entry): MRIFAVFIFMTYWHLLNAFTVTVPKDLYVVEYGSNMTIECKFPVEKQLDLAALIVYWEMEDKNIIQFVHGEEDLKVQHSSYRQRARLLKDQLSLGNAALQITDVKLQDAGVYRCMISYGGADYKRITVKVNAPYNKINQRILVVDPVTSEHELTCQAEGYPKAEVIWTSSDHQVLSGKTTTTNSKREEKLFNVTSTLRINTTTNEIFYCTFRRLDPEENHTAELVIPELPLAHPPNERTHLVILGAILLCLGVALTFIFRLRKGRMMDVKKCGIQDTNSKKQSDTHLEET

Mus musculus [14] = test: as §3, with “CD3-positive” for “melanoma”, “25” for “50”, “20.8%)” for “72.8%)”; assay type: functional
[15] = Selectivity ratio of IC50 for inhibition of mouse biotin-labelled C-terminal Fc-fused/Avi-tagged PD1/Fc-fused PDL1 expressed in HEK293 cells protein-protein interaction to IC50 for inhibition of human PD1/PDL1 protein-protein interaction; assay type: cell-based
Mus musculus [16] = test: as §1, with “CD3-positive/CD4-positive” for “CD4-positive”, “100” for “50”, “27.7” for “1.47”; assay type: ADME, organism-based; conditions: in vivo, po
[17] = Volume of distribution at steady state in Sprague-Dawley rat at 1 mg/kg, iv by LC-MS/MS analysis; assay type: ADME, organism-based; conditions: in vivo, read-out: Vdss
[18] = Toxicity in Sprague-Dawley rat at 10 mg/kg, po; assay type: organism-based; conditions: in vivo
Mus musculus [19] = test: as §2, with “CD3-positive” for “CD8-positive”, “27.5” for “0.383”; assay type: organism-based; conditions: in vivo, po
Mus musculus [20] = test: Effect on spleen helper T cell population in mouse B16/F10 cells implanted […] mouse assessed as CD4-positive cell population at 25 mg/kg, ig administered once daily via gavage for 15 days measured 24 hrs post-last dose by immunostaining based flow cytometry (reference value: 1.47 %); assay type: ADME, organism-based; conditions: in vivo, po
[21] = Oral bioavailability in Sprague-Dawley rat at 10 mg/kg by LC-MS/MS analysis; assay type: ADME, organism-based; conditions: in vivo
Mus musculus [22] = test: as §2, with “CD3-positive/CD8-positive” for “CD8-positive”, “25” for “100”, “14.2” for “0.383”; assay type: organism-based; conditions: in vivo, po
Mus musculus [23] = test: as §3, with “helper” for “activated cytotoxic”, “CD3-positive” for “melanoma”, “18.9%)” for “72.8%)”; assay type: functional
Mus musculus [24] = test: Effect on spleen helper T cell population in mouse B16/F10 cells implanted […] mouse assessed as CD3-positive cell population at 50 mg/kg, ig administered once daily via gavage for 15 days measured 24 hrs post-last dose by immunostaining based flow cytometry (reference value: 14.7%); assay type: organism-based; conditions: in vivo, po
Mus musculus [25] = test: Effect on spleen helper T cell population in mouse B16/F10 cells implanted […] mouse assessed as spleen cell population at 25 mg/kg, ig administered once daily via gavage for 15 days measured 24 hrs post-last dose by immunostaining based flow cytometry (reference value: 56.1 %); assay type: ADME, organism-based; conditions: in vivo, po
Mus musculus [26] = test: as §3, with “CD8-positive” for “melanoma”, “25” for “50”, “2.2%)” for “72.8%)”; assay type: functional
[27] = Half life in Sprague-Dawley rat at 10 mg/kg, po by LC-MS/MS analysis; assay type: ADME, organism-based; conditions: in vivo
Mus musculus [28] = test: as §2, with “CD3-positive/CD8-positive” for “CD8-positive”, “50” for “100”, “14.2” for “0.383”; assay type: organism-based; conditions: in vivo, po
[29] = Tmax in Sprague-Dawley rat at 1 mg/kg, iv by LC-MS/MS analysis; assay type: ADME, organism-based; conditions: in vivo
B16-F10 [30] = test: Antitumor activity against mouse B16/F10 cells implanted in BALB/c mouse assessed as tumor weight at 25 mg/kg, ig administered once daily via gavage for 15 days measured 24 hrs post-last dose (reference value: 0.84 +/- 0.32 g); assay type: functional
[31] = AUC (0 to infinity) in Sprague-Dawley rat at 1 mg/kg, iv by LC-MS/MS analysis; assay type: ADME, organism-based; set-up: dose 1 mg/kg, time infinity, route intravenous; conditions: in vivo
Mus musculus [32] = test: Effect on spleen helper T cell population in mouse B16/F10 cells implanted […] mouse assessed as spleen cell population at 50 mg/kg, ig administered once daily via gavage for 15 days measured 24 hrs post-last dose by immunostaining based flow cytometry (reference value: 56.1 %); assay type: ADME, organism-based; conditions: in vivo, po
[33] = Clearance in Sprague-Dawley rat at 10 mg/kg, po by LC-MS/MS analysis; assay type: ADME, organism-based; conditions: in vivo

Compound: Cc1c(COc2cc(OCc3cccc(C#N)c3)c(CNC(C)(C)C(=O)O)cc2Cl)cccc1-c1ccccc1
- Activity (Mus musculus [1]): 1.18%
- Activity (Mus musculus [2]): 0.44%
- Activity (Mus musculus [3]): 64.9%
- Activity (Mus musculus [4]): 23%
- Activity (Mus musculus [5]): 2.27%
- Activity (Mus musculus [6]): 18.7%
- Cmax [7]: 69.5 ng/mL
- IC50 [8]: > 1000 nM
- Activity (Mus musculus [9]): 14.8%
- IC50 (B16-F10 [10]): > 10000 nM
- Activity (Mus musculus [11]): Active
- Activity [12]: Non-Toxic
- IC50 [13]: 12.5 nM
- Activity (Mus musculus [14]): 18%
- Ratio IC50 [15]: > 80
- Activity (Mus musculus [16]): 25%
- Vd [17]: 2.1 L/kg
- Activity [18]: Non-Toxic
- Activity (Mus musculus [19]): 25.4%
- Activity (Mus musculus [20]): 1.94%
- bioavailability [21]: 5%
- Activity (Mus musculus [22]): 12.5%
- Activity (Mus musculus [23]): 17.7%
- Activity (Mus musculus [24]): 16.7%
- Activity (Mus musculus [25]): 59.9%
- Activity (Mus musculus [26]): 10.2%
- half-life [27]: 10.9 h
- Activity (Mus musculus [28]): 15.5%
- Tmax [29]: 4.98 min
- Activity (B16-F10 [30]): 0.41 g
- AUC(0-inf) [31]: 1050 ng·h/mL
- Activity (Mus musculus [32]): 53.9%
- CL/F [33]: 385 mL/min/kg
